The record followed here is PubChem BioAssay (NCI).

Each structure is given as a SMILES string. Several values for one entry are separate records, joined by “and”; a condition that tells them apart may be missing. Equal values may be shown once.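 1) Cells in 96-well plates. 2) Compound, 48 h, 5 concentrations. 3) Linear interpolation between surrounding doses. 4) Unreached endpoint = highest concentration. The concentration for 50% growth inhibition is given as GI50. The concentration for full growth arrest is given as TGI.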 Bounds are passed on as bounds.

Some test systems named below: OVCAR-4 ovarian; OVCAR-8 ovarian; COLO 205 colon; SK-MEL-28 melanoma; UACC-62 melanoma; MCF7 breast; DU-145 prostate; SR leukemia; SF-268 CNS; M14 melanoma.
Common to all, as to assay: growth of human tumour cells (NCI), 48 h

As to `COc1cc(OC)cc(N2CCN(C(=O)Nc3nc4cc(F)ccc4nc3OC)CC2)c1`, the TGI with OVCAR-4 ovarian is 84.8 µM and > 100 µM; with OVCAR-8 ovarian it was greater than 100 µM; with COLO 205 colon it was 0.0831 µM and 0.123 µM and 0.0771 µM; in the assay with SK-MEL-28 melanoma, 74.9 µM and 37 µM; in the assay with UACC-62 melanoma, 27.2 µM and 21.9 µM; in the assay with MCF7 breast it was 24.7 µM and 22.8 µM. In addition, the TGI was > 100 µM and 34.9 µM in the assay on DU-145 prostate; 20.2 µM and 24.8 µM in the assay on SR leukemia; 75.7 µM and 34.1 µM with SF-268 CNS. The GI50 is 0.0437 µM and 0.0499 µM and 0.056 µM in the assay on OVCAR-8 ovarian; 0.0267 µM and 0.0321 µM and 0.0266 µM in the assay with COLO 205 colon; 10.9 µM and 6.92 µM in the assay on SK-MEL-28 melanoma; < 0.01 µM and 0.0142 µM in the assay on UACC-62 melanoma; 0.0239 µM and 0.0265 µM and 0.0142 µM in the assay on MCF7 breast; 0.0438 µM and 0.0429 µM and 0.0403 µM in the assay on DU-145 prostate. For the same compound, the GI50 with SR leukemia was < 0.018 µM and 0.0415 µM and 0.0268 µM; with SF-268 CNS, 0.0912 µM and 0.094 µM and 0.0661 µM.
As to `CC(=O)N[C@@H]1CCC[C@H](C(=O)Nc2cc(-c3cnn4c3CC(C)(C)C4)c(Cl)cn2)C1`, the GI50 was 0.0235 µM with OVCAR-4 ovarian; less than 0.012 µM with OVCAR-8 ovarian; less than 0.0133 µM with SK-MEL-28 melanoma; less than 0.01 µM with UACC-62 melanoma; less than 0.01 µM with MCF7 breast; 0.0102 µM with DU-145 prostate. Further, the GI50 with SR leukemia and with SF-268 CNS was less than 0.01 µM in each case. For the same compound, the TGI is 25.4 µM in the assay on OVCAR-4 ovarian; greater than 100 µM in the assay on OVCAR-8 ovarian; 0.342 µM in the assay on SK-MEL-28 melanoma; 0.0549 µM with UACC-62 melanoma; 40.6 µM with MCF7 breast; greater than 100 µM in the assay with DU-145 prostate. Besides, the TGI amounted to 1.21 µM in the assay with SR leukemia and 0.431 µM with SF-268 CNS.
Turning to `O=C1/C(=C/c2ccccc2)CN(C(=O)OCC(Cl)(Cl)Cl)C/C1=C\c1ccccc1`, the TGI turned out to be 3.78 µM in the assay on OVCAR-8 ovarian; 11.2 µM in the assay with COLO 205 colon; 3.25 µM in the assay on SK-MEL-28 melanoma; 9.03 µM with UACC-62 melanoma; 6.23 µM with SR leukemia; 4.65 µM with M14 melanoma. For the same compound, the TGI with SF-268 CNS came to 15.3 µM.
`CCOC(=N)CC(=O)NC(C)c1ccccc1` (stereo not drawn): the TGI with OVCAR-4 ovarian, in the assay with OVCAR-8 ovarian, with COLO 205 colon, in the assay on SK-MEL-28 melanoma, in the assay on UACC-62 melanoma and with SR leukemia was greater than 100 µM throughout. The TGI in the assay with M14 melanoma and in the assay with SF-268 CNS was greater than 100 µM in each case.
On to `O=C1/C(=C/c2ccccc2)CN(C(=O)Oc2ccc([N+](=O)[O-])cc2)C/C1=C\c1ccccc1`, for which the GI50 in the assay with OVCAR-4 ovarian was 1.77 µM; in the assay on OVCAR-8 ovarian, 1.86 µM; with COLO 205 colon it was 4.95 µM; in the assay with UACC-62 melanoma, 3.81 µM; in the assay on SR leukemia, 0.261 µM; in the assay on M14 melanoma, 1.71 µM. In addition, the GI50 with SF-268 CNS is 3.11 µM. The TGI is 7.87 µM and 4.15 µM with OVCAR-4 ovarian; 3.74 µM and 4.18 µM in the assay on OVCAR-8 ovarian; 7.65 µM in the assay with SK-MEL-28 melanoma; 5.54 µM and 0.775 µM in the assay on SR leukemia; 6.74 µM and 3.51 µM in the assay with M14 melanoma.
As for `Cc1cc(N)c2ccccc2[n+]1CCCCCCCCCC[n+]1c(C)cc(N)c2ccccc21`, the GI50 in the assay on OVCAR-8 ovarian is 0.218 µM; in the assay with SK-MEL-28 melanoma, 0.277 µM and 1.18 µM; with UACC-62 melanoma, 0.189 µM; with DU-145 prostate, 0.23 µM; in the assay on SR leukemia, 0.151 µM and 1.07 µM; in the assay with M14 melanoma, 0.584 µM. Moreover, the TGI was 1.99 µM and 13.8 µM in the assay on OVCAR-8 ovarian; 1.33 µM and 5.09 µM and 3.28 µM in the assay on SK-MEL-28 melanoma; 2.59 µM and 20.2 µM in the assay with DU-145 prostate; 0.656 µM and 3.95 µM and 4.37 µM in the assay with SR leukemia; 3.25 µM and 18.5 µM and 7.33 µM with M14 melanoma; 3.49 µM and 10.3 µM and 32.5 µM in the assay with SF-268 CNS.
As for `OCCCCC#Cc1ccccc1C#Cc1cnccn1`, the GI50 in the assay on OVCAR-4 ovarian was 28.5 µM; in the assay with OVCAR-8 ovarian it was 33 µM; with COLO 205 colon, 32 µM; in the assay with SK-MEL-28 melanoma it was 43.4 µM; with UACC-62 melanoma, 21.2 µM; in the assay on MCF7 breast, 44.6 µM. Further, the GI50 in the assay with DU-145 prostate was 13.8 µM; with SR leukemia it was 28.1 µM; in the assay with SF-268 CNS, 32.4 µM. In addition, the TGI in the assay with OVCAR-4 ovarian, in the assay with OVCAR-8 ovarian, with COLO 205 colon, with SK-MEL-28 melanoma, in the assay with UACC-62 melanoma and in the assay with MCF7 breast was greater than 100 µM each time. In addition, the TGI with DU-145 prostate, in the assay on SR leukemia and in the assay on SF-268 CNS was greater than 100 µM each time.
Regarding `Cc1cccc(N2C(=O)/C(=C/c3ccc(N(CCC#N)CCC#N)cc3C)N=C2c2cc([N+](=O)[O-])ccc2Cl)c1`, the TGI in the assay on OVCAR-4 ovarian, in the assay on OVCAR-8 ovarian, with COLO 205 colon, in the assay on SK-MEL-28 melanoma, in the assay with UACC-62 melanoma and with SR leukemia was greater than 100 µM throughout. In addition, the TGI in the assay with M14 melanoma and in the assay with SF-268 CNS was greater than 100 µM each time.
For the compound `COc1ccccc1NC(=O)C(=O)C1C(=O)Nc2ccccc2S1=O` (stereo not drawn), the TGI in the assay with OVCAR-4 ovarian, with OVCAR-8 ovarian, with COLO 205 colon, in the assay on SK-MEL-28 melanoma, in the assay with UACC-62 melanoma and with SR leukemia was greater than 100 µM throughout. For the same compound, the TGI with M14 melanoma and in the assay on SF-268 CNS was greater than 100 µM in each case.
Turning to `Cc1nc(C(N)=S)sc1C(=O)CC(=O)C(=O)Nc1cccc(Cl)c1C`, the TGI in the assay on OVCAR-4 ovarian, with OVCAR-8 ovarian, in the assay on SK-MEL-28 melanoma, with UACC-62 melanoma, in the assay on MCF7 breast and with SR leukemia was greater than 100 µM in each case. Further, the TGI with M14 melanoma and in the assay on SF-268 CNS was greater than 100 µM throughout.
As to `O=c1c2cc(F)ccc2sc2c(NCCCN3CCCC3)nc3ccccc3c12`, the GI50 was 2.01 µM in the assay on OVCAR-4 ovarian; 2.11 µM in the assay on OVCAR-8 ovarian; 1.97 µM in the assay on SK-MEL-28 melanoma; 1.87 µM in the assay on UACC-62 melanoma; 1.22 µM with MCF7 breast; 2.07 µM with DU-145 prostate. Further, the figures for the GI50 with SR leukemia and in the assay with M14 melanoma were 2.75 µM and 1.86 µM, respectively. The TGI in the assay with OVCAR-4 ovarian came to 4.61 µM; in the assay on OVCAR-8 ovarian it was 4.86 µM; with SK-MEL-28 melanoma, 3.85 µM; in the assay on UACC-62 melanoma, 3.77 µM; in the assay on MCF7 breast, 2.89 µM; in the assay with DU-145 prostate it was 3.94 µM. Besides, the TGI is 6.51 µM in the assay on SR leukemia and 3.47 µM in the assay with M14 melanoma.
Take `CCCCCCCCCCCCCCCCCC1=NC(C)(C)CN1CCO`: the GI50 is 3.12 µM in the assay on OVCAR-4 ovarian; 1.55 µM in the assay with COLO 205 colon; 1.81 µM in the assay with SK-MEL-28 melanoma; 1.68 µM in the assay with UACC-62 melanoma; 1.78 µM in the assay with MCF7 breast; 1.81 µM in the assay on DU-145 prostate. Further, the GI50 in the assay on SR leukemia was 1.5 µM; with M14 melanoma it was 1.81 µM; with SF-268 CNS it was 1.8 µM. Also, the TGI in the assay on OVCAR-4 ovarian turned out to be 9.8 µM; with COLO 205 colon, 2.93 µM; in the assay with SK-MEL-28 melanoma it was 3.2 µM; with UACC-62 melanoma, 3.18 µM; with MCF7 breast, 3.32 µM; in the assay with DU-145 prostate it was 3.27 µM. For the same compound, the TGI with SR leukemia came out at 4.02 µM; with M14 melanoma, 3.49 µM; with SF-268 CNS it was 3.27 µM.
